# Data from US20150366839A1, “Schisantherin A for the treatment of neurodegenerative diseases” (priority 2014, published 2015).
# Tests used:
# P-gp = P-gp (Homo sapiens, UniProt P08183); conditions: Pan, Lu et al. 2006; cited from earlier work
# SH-SY5Y cells = assay: MTT neuroprotection against 6-OHDA-induced cytotoxicity; assay type: cell-based, Human
# Description: Human neuroblastoma SH-SY5Y cells were purchased from the American Type Culture Collection (ATCC, Manassas, Va., USA) and cultured in a humidified 5% (v/v) CO2 atmosphere in 37° C. in Dulbecco's Modified Eagle Medium (DMEM) (Life technologies, NY, USA) supplemented with 10% FBS, 1% penicillin (100 U/mL) and streptomycin (100 μg/mL). All experiments were carried out 48 h after the cells were seeded.
# Cell viability was determined by 3-(4,5-dimethyl-2-thiazolyl) 2,5-diphenyl-2H-tetrazolium bromide (MTT) assay (Sigma-Aldrich, USA). SH-SY5Y cells were seeded in 96-well plates (1×10^4 cells/well) for 48 h. SH-SY5Y cells were pre-treated with different concentrations of the five lignans (i.e. Schizandrin A, Schizandrin B, SC, Schizandrol A and SchiA) for 12 h and the cell viability was checked by MTT assay. Otherwise, SH-SY5Y cells were pre-treated with different concentrations of the five lignans for 12 h and then exposed to 400 μM 6-OHDA for 4 h. Cells were incubated at 37° C. for 4 h in 0.5 mg/mL MTT solution (prepared in serum free DMEM medium). The medium was then removed, and 100 μL of DMSO was added to each well to dissolve the violet-formazan crystals. The absorbance at 570 nm with 655 nm as a reference wavelength was measured by a multi-label counter (Wallac VICTOR3TMV, Perkin Elmer, Netherlands). Cell viability was expressed as a percentage of the value of the cells without 6-OHDA treatment. The LC50 and EC50 were calculated by GraphPad Prism V5.0 (GraphPad Software, Inc., San Diego, Calif.).
# To further study the neuroprotective activities of the five lignans against 6-OHDA-induced cytotoxicity, cells were treated with various concentrations (3, 6, 12, 25, 50 and 100 μM) of the tested compounds for 12 h before exposed to 400 μM 6-OHDA for 4 h.
# [1] = Blood brain barrier experiment; assay type: in vivo, rat
# Description: To investigate the capability of permeation of blood brain barrier (BBB). On the experimental day, heart perfusion was chosen to clear blood interference at brain under 10% chloralic hydras (i.p. 250 mg/kg) anesthesia, and brain was collected at scheduled time after dosing.
# Brain tissues were thawed and homogenized in precooled saline (at the 1:2 g:ml ratio). 250 μl of homogenized solution was added 200 μl acetonitrile and 150 μl methanol. After vortexing for 20 s, centrifugations at 12,000 rpm for 10 min were for the separation. The denatured protein was separated and the supernatant was collected and filtered through a 0.22 μm membrane. A 20 μl volume of the supernatant was injected into HPLC for analysis.
# Quantitative analysis of SchiA was completed on an Agilent series 1260 HPLC apparatus (Agilent Technologies, Santa Clara, Calif., USA) equipped with a vacuum degasser, a quaternary pump, a manual sampler and an ultraviolet detector. RP Phenonenex C-18 column (250 mm×4.6 mm, 5 μm) was used to separate at 35° C. with a mobile phase of water and methanol (83:17, v/v). The flow rate was 1 ml/min. The monitoring wavelength of SchiA was 230 nm.
# And then non-compartmental model of DAS 2.0 program was chosen to calculate the major pharmacokinetic parameters.
# The treatment of brain disorders drugs should pass through the blood-brain barrier (BBB) to regulate certain receptors in the CNS for producing effect. Thus the inventors examined whether SchiA could pass BBB. […] Generally, drug distribution was depends on the free drug concentration in plasma which could affect the supply to the target disuse. […] P-gp, functioning as an ATP-dependent drug pump, efficiently extrudes intracellular drugs out of cells, especially anticancer drugs. After oral administrated to plasma, lots of SchiA were combined at intestines and hardly entered into brain by passing through the barrier of P-gp. But after an i.v. bolus injection, SchiA which liked an impact was directly entered into systemic circulation and P-gp was saturated with SchiA speedily and SchiA couldn't stay at brain as long as plasma despite the concentration was considerable. Therefore, it is rationalized the SchiA passed through BBB caused by i.v. and it has been hypothesized that P-gp is the major determinant of SchiA pharmacokinetics.
# GSK3β = GSK3β phosphorylation (Ser9) after 6-OHDA, Western blot; assay type: cell-based, Human; conditions: pretreated 12 h, then 400 μM 6-OHDA 4 h
# Description: (§1) After treatment, SH-SY5Y cells were washed three times with PBS and then lysis with RIPA lysis buffer containing 1% PMSF and 1% Protease Inhibitor Cocktail and incubated for 30 min on ice. Cell lysates were centrifuged at 12,500 g for 20 min at 4° C. The supernatant was separated and the amount of protein was determined using the BCA protein assay kit (Thermo Scientific Pierce, USA). Protein samples (30 μg) were separated by SDS-PAGE (10% (w/v)) polyacrylamide gel and then transferred to a polyvinylidene difluoride (PVDF) membrane (Bio-Rad, Hercules, Calif.). Subsequently, the membrane was blocked with 5% (v/v) non-fat milk in PBST (PBS containing 0.1% Tween 20) for 1 h at room temperature. The blots were incubated overnight at 4° C. with primary antibodies. After three washes with PBST, the membranes were incubated with horseradish peroxidase-conjugated secondary antibodies (1:2000) in PBST with 5% non-fat milk for 1 h at room temperature. After repeated washes, proteins were visualized with an ECL advanced western blotting detection kit. Photographs of protein bands were taken by a Molecular Imager ChemiDoc XRS (Bio-Rad, Hercules, Calif.). Quantitative assessment of protein bands was done with Gel Doc™ XRS equipped with Quantity One software. […]
# ERK1/2 = assay: ERK phosphorylation after 6-OHDA, Western blot; assay type: cell-based, Human
# Description: as §1
# P-gp, sequence (P08183 whole entry): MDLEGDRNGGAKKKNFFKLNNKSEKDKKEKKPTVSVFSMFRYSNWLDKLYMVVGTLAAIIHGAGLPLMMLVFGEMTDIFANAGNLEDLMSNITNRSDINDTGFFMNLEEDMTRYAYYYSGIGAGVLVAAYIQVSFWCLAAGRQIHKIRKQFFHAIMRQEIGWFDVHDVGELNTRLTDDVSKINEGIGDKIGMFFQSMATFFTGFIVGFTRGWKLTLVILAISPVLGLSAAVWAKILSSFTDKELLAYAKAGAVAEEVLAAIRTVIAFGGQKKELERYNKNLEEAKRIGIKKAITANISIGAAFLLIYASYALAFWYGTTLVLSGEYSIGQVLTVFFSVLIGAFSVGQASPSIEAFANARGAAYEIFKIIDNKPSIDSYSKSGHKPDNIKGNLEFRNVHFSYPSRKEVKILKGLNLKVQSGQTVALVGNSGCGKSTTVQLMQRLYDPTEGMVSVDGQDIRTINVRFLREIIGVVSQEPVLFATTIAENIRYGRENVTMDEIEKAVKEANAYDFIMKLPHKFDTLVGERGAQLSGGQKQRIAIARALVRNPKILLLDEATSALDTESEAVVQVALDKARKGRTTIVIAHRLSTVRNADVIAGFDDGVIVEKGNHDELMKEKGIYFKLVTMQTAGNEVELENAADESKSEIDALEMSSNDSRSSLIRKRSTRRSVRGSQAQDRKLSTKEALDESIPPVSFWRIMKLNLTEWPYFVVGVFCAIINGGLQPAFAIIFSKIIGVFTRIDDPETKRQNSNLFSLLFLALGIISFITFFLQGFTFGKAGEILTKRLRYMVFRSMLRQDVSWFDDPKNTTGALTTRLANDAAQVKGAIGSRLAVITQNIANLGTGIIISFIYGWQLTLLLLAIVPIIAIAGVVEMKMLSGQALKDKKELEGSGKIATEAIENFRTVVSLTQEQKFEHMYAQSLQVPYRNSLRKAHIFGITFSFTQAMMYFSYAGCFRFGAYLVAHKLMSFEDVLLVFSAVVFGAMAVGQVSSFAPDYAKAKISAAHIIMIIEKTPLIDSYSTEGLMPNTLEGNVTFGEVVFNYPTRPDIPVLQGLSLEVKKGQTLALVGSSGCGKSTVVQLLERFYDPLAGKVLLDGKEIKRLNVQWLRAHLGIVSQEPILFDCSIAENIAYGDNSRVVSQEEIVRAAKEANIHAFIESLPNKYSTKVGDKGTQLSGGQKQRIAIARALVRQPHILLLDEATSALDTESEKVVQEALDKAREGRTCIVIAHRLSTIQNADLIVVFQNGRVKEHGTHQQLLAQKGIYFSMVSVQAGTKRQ
structure (smiles),measurement,setting,value
"COc1cc2c(c(OC)c1OC)-c1c(cc3c(c1OC)OCO3)C[C@H](C)[C@](C)(O)[C@H]2OC(=O)c1ccccc1 [SchiA, Schisantherin A]",P-gp inhibition,P-gp,potent P-gp inhibitor
same,protection against 6-OHDA-induced damage (cell viability),"SH-SY5Y cells; 3, 6, 12, 25, 50 and 100 μM for 12 h before 400 μM 6-OHDA 4 h",protected SH-SY5Y cells against 6-OHDA-induced damage in a dose-dependent manner
same,EC50,"SH-SY5Y cells; pre-treated 12 h, then 400 μM 6-OHDA 4 h",8.1 µM
same,concentration in brain as % of concentration in plasma,[1]; half an hour post-i.v. bolus injection,54.5%
same,ability to pass the BBB in vivo,[1]; i.v.,able to traverse the BBB in vivo
same,detection in brain samples,"[1]; i.v., up to 6 h",wasn't detected
same,detection in brain,[1]; oral administration,wasn't detected
same,6-OHDA-induced repression of GSK3β phosphorylation at serine 9,GSK3β,completely blocked
same,6-OHDA-induced reduction in ERK1/2 phosphorylation,"ERK1/2; 60 μM 12 h, then 400 μM 6-OHDA 4 h",prevented the reduction in ERK1/2 phosphorylation
same,"phosphorylated ERK1/2 level, compound alone","ERK1/2; 60 μM, without 6-OHDA",did not change
